Measurements reported in patent US10383848B2, “Indole-based therapeutics” (Creighton University, priority 2016, dated 2019).
In brackets after ≈: the same amount, converted by molar mass. Like-named read-outs stand apart in the source and are kept apart here.

Legend:
M. abscessus ATCC 19977 = assay: MIC, resazurin microtiter assay; format: cell-based; conditions: Mueller Hinton II; for MIC: Mycobacteroides abscessus, ATCC19977, read-out: MIC M. abscessus ATCC 19977
M. abscessus DCI #21 = assay: MIC, resazurin microtiter assay; format: cell-based; conditions: for MIC: Mycobacteroides abscessus, read-out: MIC M. abscessus DCI #21; for Selectivity Index (TD50/MIC) M. abscessus DCI #21: TD50 in THP-1 cells
[1] = system: M. massiliense CIP 108297; assay: MIC, resazurin microtiter assay; format: cell-based; conditions: for MIC: Mycobacteroides abscessus, CIP108297, Mueller Hinton II, read-out: MIC M. massiliense CIP 108297
M. massiliense CRM 0019 = assay: MIC, resazurin microtiter assay; format: cell-based; conditions: for MIC: Mycobacteroides abscessus, CRM0019, Mueller Hinton II, read-out: MIC M. massiliense CRM 0019; for Selectivity Index (TD50/MIC) M. Massiliense CRM0019: TD50 in THP-1 cells
M. bolletii ATCC 14472 = assay: MIC, resazurin microtiter assay; format: cell-based; conditions: for MIC: Mycobacteroides abscessus, ATCC14472, Mueller Hinton II, read-out: MIC M. bolletii ATCC 14472; for Selectivity Index (TD50/MIC) M. bolletii: TD50 in THP-1 cells
M. chelonae ATCC 35752 = assay: MIC, resazurin microtiter assay; format: cell-based; conditions: for MIC: Mycobacteroides chelonae, ATCC35752, Mueller Hinton II, read-out: MIC M. chelonae ATCC 35752; for Selectivity index (TD50/MIC): TD50 in THP-1 cells
[2] = system: M. tuberculosis H37Rv mc^26206; assay: microbe, parasite or virus in culture; format: cell-based; conditions: for MIC: Mycobacterium tuberculosis, H37RV, read-out: MIC M. tb H37 Rv (mc2-6206); for Selectivity Index (TD50/MIC) M. tb H37Rv: TD50 in THP-1 cells
M. smegmatis mc^2155 = assay: MIC, resazurin microtiter assay; format: cell-based; conditions: for MIC: Mycolicibacterium smegmatis, MC^2155, 7H9-ADC-0.05% Tween 80, read-out: MIC M. smeg. mc^2155
M. avium 104 = assay: MIC, resazurin microtiter assay; format: cell-based; conditions: Mueller Hinton II; for MIC: Mycobacterium avium, 104, read-out: MIC M. avium 104
M. intracellulare 1956 = assay: MIC, resazurin microtiter assay; format: cell-based; conditions: Mueller Hinton II; for MIC: read-out: MIC M. avium Intracellulare 1956
M. xenopi WT = assay: MIC, resazurin microtiter assay; format: cell-based; conditions: Mueller Hinton II; for MIC: Mycobacterium xenopi, read-out: MIC M. xenopi WT
P. aeruginosa PAO-1 = assay: MIC, resazurin microtiter assay; format: cell-based, Pseudomonas aeruginosa; conditions: Mueller Hinton II; for MIC: Pseudomonas aeruginosa, PAO1, read-out: MIC P. aeruginosa PAO-1
S. aureus ATCC25923 = assay: MIC, resazurin microtiter assay; format: cell-based; conditions: Staphylococcus aureus, ATCC25923; Mueller Hinton II; read-out: MIC S. aureus ATCC25923
mycobacteria = assay: organism not typed; format: cell-based; conditions: lowest concentration reducing CFU by 90% relative to the inoculum; strain not stated; read-out: MBC90
THP-1 cells = assay: Cytotoxicity assay, THP-1 cell viability (CellTiter-Glo); format: cell-based, human; conditions: 3 days
Method: The cytotoxicity of compounds was determined by measuring THP-1 cell viability after 3 days in the presence of test compounds. Compounds were prepared as 10-point serial dilutions in DMSO. The highest concentration of compound tested was 50 μM where compounds were soluble in DMSO at 10 mM. THP-1 cells were cultured in complete RPMI and differentiated into macrophage-like cells using 80 nM PMA overnight at 37° C., 5% CO2. Cells were inoculated into assay plates and cultured for 24 h before compound dilutions were added to a final DMSO concentration of 0.5%. Each run included staurosporine as a control. Assay plates were incubated for 3 days at 37° C., 5% CO2, growth was measured using the CellTiter-Glo® Luminescent Cell Viability Assay (Promega) which uses ATP as an indicator of cell viability. Relative luminescent units (RLU) were measured using a Biotek Synergy 4 plate reader. The dose response curve was fitted using the Levenberg-Marquardt algorithm.

M. abscessus 103 [3] = assay: MIC/MBC by microbroth dilution (MH or 7H9 broth); format: cell-based, M. abscessus subsp. bolletii; conditions: Mycobacteroides abscessus, 103; for MBC: 7H9 broth, read-out: MBC99 M. abscessus subsp. bolletii 103
M. abscessus 1513 = assay: MIC/MBC by microbroth dilution (MH or 7H9 broth); format: cell-based, M. abscessus subsp. abscessus; conditions: Mycobacteroides abscessus, 1513; for MBC: 7H9 broth, read-out: MBC99 M. abscessus subsp. abscessus 1513
[4] = system: M. massiliense strain 1513; assay: Metabolic labeling and mycolic acid analysis; conditions: 4x and 10x MIC, 16 hr, [1,2-14C]acetate labeling, TLC
Method: Cultures of M. massiliense 1513 grown to mid log-phase in Mueller-Hinton II broth were incubated with different concentrations of inhibitors for 16 hr at 37° C. with shaking. 0.5 μCi/mL [1,2-^14C]acetic acid (specific activity, 52 Ci/mol, PerkinElmer Inc.) was added at the same time as the inhibitors. Total lipids and cell wall-bound mycolic acid methyl esters were prepared from treated and untreated cells and analyzed by TLC as described in Grzegorzewicz et al, Nature Chemical Biology, 2012, 8:334+341.

M. abscessus 103 [5] = assay: Acute SCID mouse infection efficacy model; conditions: SCID mice i.v. infected with M. abscessus 103; compounds 300 mg/kg PO in 20% cyclodextrin, AMI 150 mg/kg SQ, once daily 8 days
[6] = read-out: MIC M. abscessus 103, 7H9 Broth
[7] = read-out: MIC M. abscessus 103, MH Broth
[8] = read-out: MIC M. abscessus 1513, 7H9 Broth
[9] = read-out: MIC M. abscessus 1513, MH Broth

SMILES	MIC (M. abscessus ATCC 19977) [µg/mL]	MIC (M. abscessus DCI #21; Mueller Hinton II) [µg/mL]	MIC [1] [µg/mL]	MIC (M. massiliense CRM 0019) [µg/mL]	MIC (M. bolletii ATCC 14472) [µg/mL]	MIC (M. chelonae ATCC 35752) [µg/mL]	MIC [2] [µg/mL]	MIC (M. smegmatis mc^2155) [µg/mL]	MIC (M. avium 104) [µg/mL]	MIC (M. intracellulare 1956) [µg/mL]	MIC (M. xenopi WT) [µg/mL]	MIC P. aeruginosa PAO-1 (P. aeruginosa PAO-1)	MIC (P. aeruginosa PAO-1) [µg/mL]	MIC (S. aureus ATCC25923) [µg/mL]	MBC (mycobacteria) [µg/mL]	MIC (M. abscessus 103 [3]; [6]) [µg/mL]	MIC (M. abscessus 103 [3]; [7]) [µg/mL]	MIC (M. abscessus 1513; [8]) [µg/mL]	MIC (M. abscessus 1513; [9]) [µg/mL]	further results
C[C@@H]1[C@H]2C[C@@H](C[C@H]1NC(=O)c1cc3ccccc3[nH]1)C2(C)C [Compound 16, N-((1R,2R,3R,5S)-2,6,6-trimethylbicyclo[3.1.1]heptan-3-yl)-1H-indole-2-carboxamide]	0.12 (≈ 0.405 µM)	0.5 (≈ 1.69 µM)	0.06 (≈ 0.202 µM)	0.06 (≈ 0.202 µM)	0.12 (≈ 0.405 µM)	< 0.06	0.05 (≈ 0.169 µM)	0.78 (≈ 2.63 µM)	8 (≈ 27 µM)	8 (≈ 27 µM)	0.5 to 1 (≈ 1.69 to 3.37 µM)	inactive	> 160	40 (≈ 135 µM)	0.06 (≈ 0.202 µM)	> 64	16 (≈ 54 µM)	> 64	> 64	Selectivity Index (TD50/MIC) M. abscessus DCI #21 (M. abscessus DCI #21): 22.6; Selectivity Index (TD50/MIC) M. Massiliense CRM0019 (M. massiliense CRM 0019): 188; Selectivity Index (TD50/MIC) M. bolletii (M. bolletii ATCC 14472): 92; Selectivity index (TD50/MIC) (M. chelonae ATCC 35752): >188; Selectivity Index (TD50/MIC) M. tb H37Rv [2]: 226; TD50 (THP-1 cells): 11.3 µg/mL; TMM build-up and mycolic acid transfer onto arabinogalactan and TDM [4]: concentration-dependent build-up of TMM
Cc1cc(C)c2cc(C(=O)NC3CCC(C)CC3)[nH]c2c1 (stereo not shown) [Compound 30, N-4-methylcyclohexyl-4,6-dimethyl-1H-indole-2-carboxamide]												inactive	> 160	> 160	0.03 (≈ 0.105 µM)					MIC M. abscessus ATCC 19977 (M. abscessus ATCC 19977): ≤0.06 µg/mL; MIC M. abscessus DCI #21 (M. abscessus DCI #21; Mueller Hinton II): ≤0.06 µg/mL; MIC M. massiliense CIP 108297 ([1]; Mueller Hinton II): ≤0.06 µg/mL; MIC M. massiliense CRM 0019 (M. massiliense CRM 0019; Mueller Hinton II): ≤0.06 µg/mL; MIC M. bolletii ATCC 14472 (M. bolletii ATCC 14472; Mueller Hinton II): ≤0.06 µg/mL; MIC M. chelonae ATCC 35752 (M. chelonae ATCC 35752; Mueller Hinton II): ≤0.06 µg/mL; MIC M. smeg. mc^2155 (M. smegmatis mc^2155; 7H9-ADC-0.05% Tween 80): >20 µg/mL; MIC M. avium 104 (M. avium 104): >32 µg/mL; MIC M. avium Intracellulare 1956 (M. intracellulare 1956): >32 µg/mL; MIC M. xenopi WT (M. xenopi WT): 0.5 to 1 µg/mL
Cc1cc(C)c2cc(C(=O)NC3CCCCCC3)[nH]c2c1 [Compound 26, N-cycloheptyl-4,6-dimethyl-1H-indole-2-carboxamide]	≤ 0.06	≤ 0.06	≤ 0.06	≤ 0.06	≤ 0.06	≤ 0.06		0.625 (≈ 2.2 µM)	2 (≈ 7.03 µM)	4 (≈ 14.1 µM)	0.06 to 0.12 (≈ 0.211 to 0.422 µM)	inactive	> 160	> 160	0.015 (≈ 0.0527 µM)					
NCC[C@H](O)C(=O)N[C@@H]1C[C@H](N)[C@@H](O[C@H]2O[C@H](CN)[C@@H](O)[C@H](O)[C@H]2O)[C@H](O)[C@H]1O[C@H]1O[C@H](CO)[C@@H](O)[C@H](N)[C@H]1O [amikacin, reference compound]																8 (≈ 13.7 µM)	4 (≈ 6.83 µM)	> 64	> 64	MBC (M. abscessus 103 [3]): > 64 µg/mL; MBC (M. abscessus 1513): > 64 µg/mL; log10 CFU liver counts on day 12 (M. abscessus 103 [5]): 4.03±0.62 log10 CFU; log10 CFU lung counts on day 12 (M. abscessus 103 [5]): 3.52±0.22 log10 CFU; log10 CFU spleen counts on day 12 (M. abscessus 103 [5]): 3.12±0.30 log10 CFU
CC(NC(=O)c1cc2ccccc2[nH]1)C12CC3CC(CC(C3)C1)C2 (stereo not shown) [Compound 7, N-(1-(1-adamantyl)ethyl)-1H-indole-2-carboxamide]	16 (≈ 49.6 µM)	16 (≈ 49.6 µM)	8 (≈ 24.8 µM)	8 (≈ 24.8 µM)	16 (≈ 49.6 µM)	2 (≈ 6.2 µM)	> 5	> 20	> 32	32 (≈ 99.2 µM)	8 (≈ 24.8 µM)									
CC[C@H]1OC(=O)[C@H](C)[C@@H](O[C@H]2C[C@@](C)(OC)[C@@H](O)[C@H](C)O2)[C@H](C)[C@@H](O[C@@H]2O[C@H](C)C[C@H](N(C)C)[C@H]2O)[C@](C)(OC)C[C@@H](C)C(=O)[C@H](C)[C@@H](O)[C@]1(C)O [clarithromycin, reference compound]																16 (≈ 21.4 µM)	4 (≈ 5.35 µM)	> 64	> 64	MBC (M. abscessus 103 [3]): > 64 µg/mL; MBC (M. abscessus 1513): > 64 µg/mL
Cc1cc(C)c2cc(C(=O)N[C@@H]3C[C@@H]4C[C@H]([C@H]3C)C4(C)C)[nH]c2c1 [Compound 31, N-((1R,2R,3R,5S)-2,6,6-trimethylbicyclo[3.1.1]heptan-3-yl)-4,6-dimethyl-1H-indole-2-carboxamide]	0.125 (≈ 0.385 µM)	0.125 (≈ 0.385 µM)	0.125 (≈ 0.385 µM)	0.125 (≈ 0.385 µM)	0.125 (≈ 0.385 µM)	0.125 (≈ 0.385 µM)		1.25 to 2.5 (≈ 3.85 to 7.7 µM)	2 (≈ 6.16 µM)	2 (≈ 6.16 µM)	0.25 to 1 (≈ 0.77 to 3.08 µM)	inactive	> 160	> 160		> 64	16 (≈ 49.3 µM)	> 64	> 64	Selectivity Index (TD50/MIC) M. abscessus DCI #21 (M. abscessus DCI #21): >130; Selectivity Index (TD50/MIC) M. Massiliense CRM0019 (M. massiliense CRM 0019): >130; Selectivity Index (TD50/MIC) M. bolletii (M. bolletii ATCC 14472): >130; Selectivity index (TD50/MIC) (M. chelonae ATCC 35752): >130; Selectivity Index (TD50/MIC) M. tb H37Rv [2]: >830; TD50 (THP-1 cells): >16.2 µg/mL; TMM build-up and mycolic acid transfer onto arabinogalactan and TDM [4]: concentration-dependent build-up of TMM
O=C(NC1CCCCCCC1)c1cc2ccccc2[nH]1 [Compound 10, N-cyclooctyl-1H-indole-2-carboxamide]	> 32	> 32	> 32	32 (≈ 118 µM)	32 (≈ 118 µM)	> 32	0.39 (≈ 1.44 µM)	25 (≈ 92.5 µM)	> 32	> 32	2 (≈ 7.4 µM)									
